# According to PMC12587545, “Noncytotoxic polymyxin derivatives enhance antibiotic action against multidrug-resistant Gram-negative bacteria” (Antimicrobial Agents and Chemotherapy, 2025):
# Read-outs that look alike come from different tables or passages of the source. Positions of bridges follow the written chain, without caps; N, C: chain ends. Non-standard residues stand in square brackets, D forms with d. Residues, ends and D or L forms follow the SMILES beside them. *: point of attachment. Agp = N=C(N)NC[C@H](N)C(=O)O; X1 = CC[C@H](C)CCCCC(=O)*; Octanoyl = CCCCCCCC(=O)*; Dab = NCC[C@H](N)C(=O)O; Dap = NC[C@H](N)C(=O)O
# Columns and labels:
# [1] = tested on: RPTEC/TERT1; type: cell-based, human; conditions: 48 h
# Method: (§1) Kidney cell lines, HK-2 (CRL-2190) and RPTEC/TERT1 (CRL-4031), and neural cell lines, U-87 MG (HTB-14) and SK-N-SH (HTB-11), were obtained from American Type Culture Collection (ATCC). HK-2 cells were cultured in T75 flasks with keratinocyte serum-free medium supplemented with bovine pituitary extract, human epidermal growth factor, and 2.5% FBS. RPTEC/TERT1 cells were cultured in T75 flasks with Dulbecco’s modified Eagle’s medium:F12 supplemented with the ATCC (United States) human telomerase reverse transcriptase immortalized RPTEC growth kit, G418 (0.1 mg/mL final concentration), and 2% FBS. Both U-87 MG and SK-N-SH cells were cultured in minimal essential media supplemented with 10% FBS. The cells were incubated in a humidified atmosphere at 5% CO2 and at 37°C.
# (§2) The cytotoxicity of the compounds toward the mammalian cell lines was assessed using the cell viability assay protocols as previously described ([29]). Designated wells in 96-well plates were seeded with HK-2 (5,000 cells), RPTEC/TERT1 (8,000 cells), U-87 MG (7,000 cells), or SK-N-SH (8,000 cells) in 50 µL. Blank wells received an identical volume of only media. After incubating the cells for 24 h, all wells were treated with varying concentrations of the compound and incubated for 48 h. Subsequently, PrestoBlue reagent (Invitrogen, United States) was added to the wells to a final concentration of 10% (vol/vol), and the plate was incubated for an additional 1 h. Fluorescence was measured with a SpectraMax M2 plate reader (Molecular Devices, United States), at excitation and emission wavelengths of 560 and 590 nm, respectively. Values from the blank wells were subtracted from the corresponding wells containing cells. The cell viability relative to the controls with vehicle was calculated and presented as mean ± standard deviation of at least two experiments with five replicates each. CC50 values were obtained using GraphPad Prism (version 10.4.1) by non-linear regression (four-parameter logistic fit).
# [2] = tested on: HK-2; type: cell-based, human
# Method: as §1, §2
# [3] = tested on: E. coli; conditions: for Resistance phenotype of MDR clinical isolates (antibiotic susceptibility value): Table S4
# Method: (§3) The bacterial isolates were acquired from ATCC or the Canadian Ward Surveillance (CANWARD) study ([56]). CANWARD isolates were collected from infected patients admitted to participating medical centers across Canada.
# (§4) The antibiotic or compound was serially diluted 2-fold in CAMHB on a 96-well plate and was incubated with equal volumes of bacterial inoculum overnight at 37°C. Wells containing only media were used as negative controls, and wells containing only bacteria were used as positive controls. Antibacterial activity was measured by the MIC, or the lowest concentration of agent required to inhibit visible bacterial growth.
# [4] = tested on: P. aeruginosa; assay: Checkerboard assay (antibiotic potentiation); type: cell-based, Pseudomonas aeruginosa; conditions: P. aeruginosa PAO1; compound alone
# Method: The interaction between the compounds and the antibiotics was evaluated using the fractional inhibitory concentration (FIC) index. FIC indices of ≤0.5 is synergistic, 0.5 < × ≤ 4 is additive, whereas >4 is antagonistic ([34]).
# Synergy was measured by the FIC index, which is the summation of the individual FICs of the antibiotic and the compound. The FIC is calculated by dividing the MIC of one agent in the presence of another by the MIC of the agent alone. […] The FBS studies were conducted by following a previously published protocol ([29], [50]). The FBS was inactivated by heating at 56°C for 30 min with constant swirling.
# [5] = tested on: A. baumannii; assay: Checkerboard assay (antibiotic potentiation); type: cell-based, Acinetobacter baumannii; conditions: A. baumannii ATCC 17978; compound alone
# Method: The interaction between the compounds and the antibiotics was evaluated using the fractional inhibitory concentration (FIC) index. FIC indices of ≤0.5 is synergistic, 0.5 < × ≤ 4 is additive, whereas >4 is antagonistic ([34]). […] .
# as §3
# The antibiotic and compounds were serially diluted 2-fold in CAMHB along the x- and y-axis, respectively, on a 96-well plate that was subsequently incubated with equal volumes of bacterial inoculum overnight at 37°C. Wells containing only media were used as negative controls, and wells containing only bacteria were used as positive controls. Synergy was measured by the FIC index, which is the summation of the individual FICs of the antibiotic and the compound. The FIC is calculated by dividing the MIC of one agent in the presence of another by the MIC of the agent alone. Turbidity was confirmed with a Molecular Devices (United States) EMax Plus microplate reader at a wavelength of 590 nm. The FBS studies were conducted by following a previously published protocol ([29], [50]). The FBS was inactivated by heating at 56°C for 30 min with constant swirling.
# [6] = tested on: A. baumannii; type: cell-based, Acinetobacter baumannii
# Method: Gram-negative and Gram-positive bacterial isolates were grown in lysogeny broth (LB) and brain heart infusion, respectively, overnight in a shaking incubator at 250 rpm and at 37°C.
# The antibacterial activity of the antibiotics and compounds was assessed using the broth microdilution assay in accordance with Clinical Laboratory Standards Institute (CLSI) guidelines ([36]), and by following a previously described protocol ([27][–][29], [54], [55]). Bacterial culture grown overnight was diluted in saline to 0.5 McFarland turbidity and was further diluted 1:50 in CAMHB to attain a final concentration of 5 × 10^5 colony-forming units (cfu)/mL for inoculation. The antibiotic or compound was serially diluted 2-fold in CAMHB on a 96-well plate and was incubated with equal volumes of bacterial inoculum overnight at 37°C. Wells containing only media were used as negative controls, and wells containing only bacteria were used as positive controls. Antibacterial activity was measured by the MIC, or the lowest concentration of agent required to inhibit visible bacterial growth. Turbidity was confirmed with a Molecular Devices (United States) EMax Plus microplate reader at a wavelength of 590 nm.
# [7] = tested on: P. aeruginosa
# Method: as §3
# as §4, with “growth. Turbidity was confirmed with a Molecular Devices (United States) EMax Plus microplate reader at a wavelength of 590 nm.” for “growth.”
# [8] = tested on: K. pneumoniae
# Method: as §3
# as §4, with “growth. Turbidity was confirmed with a Molecular Devices (United States) EMax Plus microplate reader at a wavelength of 590 nm.” for “growth.”
# [9] = tested on: E. cloacae
# Method: as §3
# as §4, with “growth. Turbidity was confirmed with a Molecular Devices (United States) EMax Plus microplate reader at a wavelength of 590 nm.” for “growth.”
# [10] = tested on: SK-N-SH; assay: Cell viability assay (PrestoBlue); type: cell-based; conditions: SK-N-SH
# Method: as §1
# as §2, with “After incubating the cells for 24 h, all wells were treated with varying concentrations of the compound and incubated for 48 h.” left out
# [11] = tested on: U-87 MG; assay: Cell viability assay (PrestoBlue); type: cell-based; conditions: U-87 MG
# Method: as §1
# as §2, with “After incubating the cells for 24 h, all wells were treated with varying concentrations of the compound and incubated for 48 h.” left out
# [12] = cited from earlier work
# Method: Although the amphiphilic nature of polymyxins is crucial to permeabilize the outer membrane, this property can also be detrimental as it increases binding affinity to serum proteins, thereby limiting bioavailability ([50]). […] To assess the impact of serum binding on antibiotic potentiation, FBS was added to the media to simulate these conditions (Table 10). Zoliflodacin potentiation by compound 1 was diminished with increasing ...
# [13] = E. coli 94393, colistin-resistant
# [14] = E. coli 94474, colistin-resistant
# [15] = A. baumannii 92247, colistin-resistant
# [16] = K. pneumoniae 113250, colistin-resistant
# [17] = P. aeruginosa 259-96916, clinical isolate
# [18] = P. aeruginosa 262-101856, clinical isolate
# [19] = P. aeruginosa 264-104354, clinical isolate
# [20] = P. aeruginosa 101243, colistin-resistant
# [21] = P. aeruginosa 114228, colistin-resistant
# [22] = E. cloacae 121887, colistin-resistant
molecule,measurement,setting,value
CCCCCCCC(=O)N[C@@H](CCN)C(=O)N[C@H](C(=O)N[C@@H](CC(=O)O)C(=O)N[C@H]1CCNC(=O)[C@H]([C@@H](C)O)NC(=O)[C@H](CCN)NC(=O)[C@H](CCN)NC(=O)[C@H](CC(C)C)NC(=O)[C@@H](Cc2ccccc2)NC(=O)[C@H](CCN)NC1=O)[C@@H](C)O [Compound 4] (Octanoyl-[Dab]TD[Dab][Dab][dF]L[Dab][Dab]T; lactam 4-C),CC50 in RPTEC/TERT1,[1],238.8 µM
same,CC50 in HK-2,[2],236.1 µM
same,CC50 in HK-2,[2]; 48 h,236.8 µM
CCCCCCCC(=O)N[C@@H](CCN)C(=O)N[C@H](C(=O)N[C@@H](CCN)C(=O)N[C@H]1CCNC(=O)[C@H]([C@@H](C)O)NC(=O)[C@H](CCN)NC(=O)[C@H](CCN)NC(=O)[C@H]([C@@H](C)O)NC(=O)[C@@H]([C@H](C)O)NC(=O)[C@H](CCN)NC1=O)[C@@H](C)O [Compound F230] (Octanoyl-[Dab]T[Dab][Dab][Dab][dT]T[Dab][Dab]T; lactam 4-C),CC50 in RPTEC/TERT1,[1],471.4 µM
same,CC50 in HK-2,[2]; 48 h,263.1 µM
CCCCCCCC(=O)N[C@@H](CN)C(=O)N[C@H](C(=O)N[C@@H](CC(=O)O)C(=O)N[C@H]1CCNC(=O)[C@H]([C@@H](C)O)NC(=O)[C@H](CN)NC(=O)[C@H](CN)NC(=O)[C@H](CC(C)C)NC(=O)[C@@H](Cc2ccccc2)NC(=O)[C@H](CN)NC1=O)[C@@H](C)O [Compound 3] (Octanoyl-[Dap]TD[Dab][Dap][dF]L[Dap][Dap]T; lactam 4-C),MIC,[3],>128 µg/mL
same,MICcompound,[4],>128 µg/mL
same,MICcompound,[5],>128 µg/mL
same,MIC,[6],>128 µg/mL
same,CC50 in RPTEC/TERT1,[1],627.2 µM
same,CC50 in HK-2,[2]; 48 h,215.5 µM
same,MIC,[7],>128 µg/mL
"CN(C)c1cc(CNCC(C)(C)C)c(O)c2c1C[C@H]1C[C@H]3[C@H](N(C)C)C(O)=C(C(N)=O)C(=O)[C@@]3(O)C(O)=C1C2=O [OMC, omadacyline]",Resistance phenotype of MDR clinical isolates (antibiotic susceptibility value),[3]; E. coli 94393 (mcr-1 +),4
same,Resistance phenotype of MDR clinical isolates (antibiotic susceptibility value),[3]; E. coli 94474 (mcr-1 +),16
same,Resistance phenotype of MDR clinical isolates (antibiotic susceptibility value),[3]; E. coli 107115,4
same,Resistance phenotype (antibiotic susceptibility profile),[6]; A. baumannii AB027,1
same,Resistance phenotype (antibiotic susceptibility profile),[6]; A. baumannii AB031,2
same,Resistance phenotype (antibiotic susceptibility profile),[8]; K. pneumoniae 113250,2
same,Resistance phenotype (antibiotic susceptibility profile),[8]; K. pneumoniae 116381,4
same,Resistance phenotype (antibiotic susceptibility profile),[7]; P. aeruginosa 259-96916,64
same,Resistance phenotype (antibiotic susceptibility profile),[7]; P. aeruginosa 262-101856,64
same,Resistance phenotype (antibiotic susceptibility profile),[7]; P. aeruginosa 264-104354,64
same,Resistance phenotype (antibiotic susceptibility profile),[7]; P. aeruginosa 114228,128
same,Resistance phenotype of MDR clinical isolates (antibiotic susceptibility value),"[9]; E. cloacae 117029, Table S4",4
CCCCCCCC(=O)N[C@@H](CNC(=N)N)C(=O)N[C@H](C(=O)N[C@@H](CNC(=N)N)C(=O)N[C@H]1CCNC(=O)[C@H]([C@@H](C)O)NC(=O)[C@H](CNC(=N)N)NC(=O)[C@H](CNC(=N)N)NC(=O)[C@H](CC(C)C)NC(=O)[C@@H](Cc2ccccc2)NC(=O)[C@H](CNC(=N)N)NC1=O)[C@@H](C)O [Compound 2] (Octanoyl-[Agp]T[Agp][Dab][Agp][dF]L[Agp][Agp]T; lactam 4-C),CC50 in RPTEC/TERT1,[1],28 µM
same,CC50 in HK-2,[2]; 48 h,26.9 µM
Polymyxin B [PMB],MIC,[3]; [13],4 µg/mL
same,MIC,[3]; [14],16 µg/mL
same,MIC,[3]; E. coli 107115,0.25 µg/mL
same,MIC,[3]; E. coli 131629,≤0.25 µg/mL
same,MIC,"[3]; E. coli ATCC 25922, wild-type",0.5 µg/mL
same,toxicity,[10],lack of toxicity
same,toxicity,[11],lack of toxicity
same,mean protein binding,[12],> 90%
same,median protein binding,[12],58%
same,MIC,[6]; [15],8 µg/mL
same,MIC,[6]; A. baumannii 110193,1 µg/mL
same,MIC,[6]; A. baumannii AB027,0.25 µg/mL
same,MIC,"[6]; A. baumannii ATCC 17978, wild-type",2 µg/mL
same,MIC,[8]; [16],128 µg/mL
same,MIC,[8]; K. pneumoniae 116381,1 µg/mL
same,MIC,[7]; [17],≤0.063 µg/mL
same,MIC,[7]; [18],0.5 µg/mL
same,MIC,[7]; [19],2 µg/mL
same,MIC,[7]; [20],>128 µg/mL
same,MIC,[7]; [21],64 µg/mL
same,MIC,"[7]; P. aeruginosa PAO1, wild-type, CAMHB, overnight 37°C",1 µg/mL
same,MIC,[9]; E. cloacae 117029,0.5 µg/mL
same,MIC,[9]; [22],>128 µg/mL
"CC[C@H](C)CCCCC(=O)N[C@@H](CCN)C(=O)N[C@H](C(=O)N[C@@H](CCN)C(=O)N[C@H]1CCNC(=O)[C@H]([C@@H](C)O)NC(=O)[C@H](CCN)NC(=O)[C@H](CCN)NC(=O)[C@H](CC(C)C)NC(=O)[C@@H](CC(C)C)NC(=O)[C@H](CCN)NC1=O)[C@@H](C)O [Colistin, colistin] (X1-[Dab]T[Dab][Dab][Dab][dL]L[Dab][Dab]T; lactam 4-C (inferred); N-terminus assumed)",MIC,[3]; [13],4 µg/mL
same,MIC,[3]; [14],16 µg/mL
same,MIC,[3]; E. coli 107115,0.125 µg/mL
same,MIC,[3]; E. coli 131629,≤0.25 µg/mL
same,MIC,[6]; [15],4 µg/mL
same,MIC,[6]; A. baumannii 110193,0.5 µg/mL
same,MIC,[6]; A. baumannii AB027,0.25 µg/mL
same,MIC,[6]; A. baumannii AB031,0.25 µg/mL
same,MIC,[8]; [16],256 µg/mL
same,MIC,[8]; K. pneumoniae 116381,1 µg/mL
same,MIC,[7]; [17],0.5 µg/mL
same,MIC,[7]; [18],2 µg/mL
same,MIC,[7]; [19],1 µg/mL
same,MIC,[7]; [20],1024 µg/mL
same,MIC,[7]; [21],4 µg/mL
same,MIC,[9]; E. cloacae 117029,0.25 µg/mL
same,MIC,[9]; [22],>16 µg/mL
